Source: ChEMBL document CHEMBL1201862, “PubChem BioAssay data set” (2004)
Active and inactive are the calls of the source.

Experiments:
[1] = target: 26S proteasome non-ATPase regulatory subunit 14 (Homo sapiens, UniProt O00487); assay: inhibition of proteasome subunit RPN11 – biochemical, fluorescence polarization, uHTS hits, confirmation (AID 602368); assay type: functional
Prothrombin = Prothrombin (Bos taurus, UniProt P00735); assay: thrombin inhibition, dose response, biochemical, fluorescence polarization, uHTS hits (AID 602369); assay type: functional
[2] = target: 72 kDa type IV collagenase (Homo sapiens, UniProt P08253); assay: Dose Response validation of uHTS RPN11 inhibitor hits using a MMP-2 Fluorescence assay.; assay type: functional
[3] = NIH-3T3 fibroblast cytotoxicity, dose response, cytotoxicity control, cell-based, fluorescence, Alamar Blue, secondary assay (AID 2327); assay type: functional;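 note: NIH-3T3 mouse fibroblasts cultured with fluconazole at 8 µg/mL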
[4] = microbe, parasite or virus in culture; assay type: functional; details: Mycobacterium tuberculosis
[5] = target: ATP-dependent molecular chaperone HSP82 (Candida albicans (strain WO-1) (Yeast), UniProt C4YTQ8); assay: loss of DOC-induced GRE-beta-galactosidase reporter signal, dose response, Hsp90 inhibitor project, S. cerevisiae, luminescence (AID 2400); assay type: functional, cell-based;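 note: beta-galactosidase luminescence from glucocorticoid response element reporter as proxy for Hsp90 function; inhibitor potency where signal loss means Hsp90 inhibition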
[6] = system: Streptococcus sp. 'group A'; assay: growth inhibition of control SK(-) GAS strain, dose response, counter-screen for streptokinase expression inhibitor project, luminescence, kanamycin, BacTiterGlo, confirmation (AID 1900); assay type: functional, organism-based
Streptokinase A = target: T1, Streptokinase A (Streptococcus pyogenes serotype M1, UniProt P10520); assay: S. pyogenes streptokinase expression inhibitors, potency, dose response, plasminogen activation absorbance, OD405 (AID 1914); assay type: functional, Streptococcus pyogenes M1 GAS;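 note: secreted streptokinase activity via plasminogen activation per viability signal from cell pellet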
T1 sequence (P10520 whole entry): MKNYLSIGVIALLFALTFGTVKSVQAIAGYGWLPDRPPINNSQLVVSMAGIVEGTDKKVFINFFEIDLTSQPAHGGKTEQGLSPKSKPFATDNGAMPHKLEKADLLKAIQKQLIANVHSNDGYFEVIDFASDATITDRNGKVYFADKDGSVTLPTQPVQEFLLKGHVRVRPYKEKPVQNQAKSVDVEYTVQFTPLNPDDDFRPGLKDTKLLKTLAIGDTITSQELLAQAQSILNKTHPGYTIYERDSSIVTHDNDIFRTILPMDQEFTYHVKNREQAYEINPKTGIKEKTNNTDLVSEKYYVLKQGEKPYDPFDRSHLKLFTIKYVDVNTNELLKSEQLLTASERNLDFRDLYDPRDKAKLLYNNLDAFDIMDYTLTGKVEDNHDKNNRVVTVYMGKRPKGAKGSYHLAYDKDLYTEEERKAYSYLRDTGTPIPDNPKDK

[7] = target: T2, Serine/threonine-protein phosphatase (Candida dubliniensis (strain CD36 / CBS 7987 / NCPF 3949 / NRRLY-17841) (Yeast), UniProt B9W6M3); assay: calcineurin pathway inhibitors in yeast reporter, dose response, S. cerevisiae, CDRE-lacZ, luminescence, secondary (AID 2388); assay type: functional, cell-based;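 note: yeast reporter cells carrying a calcineurin-responsive lacZ construct stimulated with calcium chloride; luminescent beta-galactosidase reporter signal in whole cells rather than isolated phosphatase activity; potency for inhibition where a drop in reporter signal means calcineurin blockade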
T2 sequence (B9W6M3 whole entry): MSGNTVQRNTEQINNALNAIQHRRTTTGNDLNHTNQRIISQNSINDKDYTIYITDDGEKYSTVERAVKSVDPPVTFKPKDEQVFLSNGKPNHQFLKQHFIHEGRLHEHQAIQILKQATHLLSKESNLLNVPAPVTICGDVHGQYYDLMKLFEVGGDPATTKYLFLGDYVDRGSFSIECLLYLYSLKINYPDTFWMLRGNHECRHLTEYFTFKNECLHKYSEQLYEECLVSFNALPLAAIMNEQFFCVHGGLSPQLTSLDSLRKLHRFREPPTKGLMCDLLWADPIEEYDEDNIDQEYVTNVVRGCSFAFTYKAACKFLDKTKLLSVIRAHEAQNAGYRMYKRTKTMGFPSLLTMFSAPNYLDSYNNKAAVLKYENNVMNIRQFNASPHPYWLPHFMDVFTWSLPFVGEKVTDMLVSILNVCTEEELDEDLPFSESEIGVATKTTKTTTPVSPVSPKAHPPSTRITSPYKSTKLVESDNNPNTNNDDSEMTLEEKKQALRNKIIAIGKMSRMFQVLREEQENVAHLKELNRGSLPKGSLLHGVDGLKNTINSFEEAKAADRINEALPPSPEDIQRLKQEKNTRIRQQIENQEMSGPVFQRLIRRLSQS

[8] = Luminescence Cell-Based Dose Retest to Confirm Inhibitors of Cancer Stem Cells. [Related pubchem assays (depositor defined):AID2717, AID2721]; assay type: functional; details: Homo sapiens
Streptococcus = assay: Group A Streptococcus viability loss, dose response, counter-screen for streptokinase expression inhibitor project, luminescence, BacTiterGlo (AID 1915); assay type: functional, organism-based;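 note: potency for reduction of bacterial viability or growth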
[9] = C. albicans growth with fluconazole, confirmation, fluorescence, retest (AID 2467); assay type: functional, cell-based
Melanocortin receptor 4 = Melanocortin receptor 4 (Homo sapiens, UniProt P32245); assay type: functional, cell-based;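 note: Cell-based assay with luminescence read-out, confirmatory dose-response testing for agonist activity of biased ligands at MC4R; human U2OS cells with tagged receptor and beta-arrestin; potency of agonists that increase receptor coupling to beta-arrestin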
[10] = target: T3, Endoribonuclease toxin MazF (Escherichia coli K-12, UniProt P0AE70); assay: fluorescent RNA oligo signal without MazF, dose response, counter-screen for MazEF activator project, biochemical, fluorescence, single-stranded RNase substrate (AID 588502); assay type: functional
T3 sequence (P0AE70 whole entry): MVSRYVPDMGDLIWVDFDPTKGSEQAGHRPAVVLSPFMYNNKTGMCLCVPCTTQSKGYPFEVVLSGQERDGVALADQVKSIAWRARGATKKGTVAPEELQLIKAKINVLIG

[11] = target: T3, Endoribonuclease toxin MazF; assay: MazF toxin RNase activators, dose response, biochemical, fluorescence, single-stranded RNA substrate, uHTS hits (AID 588481); assay type: functional
[12] = target: Photoreceptor-specific nuclear receptor (Homo sapiens, UniProt Q9Y5X4); assay type: functional, cell-based;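 note: CHO-S cells with Gal4-NCOR and VP16-NR2E3 two-hybrid luciferase reporter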
HEK293 = assay: inhibitors of LMP1-driven NF-kB reporter, dose response, cell-based, HEK293, luciferase, cherry-pick (AID 588343); assay type: functional; details: Homo sapiens
[13] = LGR2 antagonists, dose response, cell-based, HEK293, CRE-luciferase reporter, cherry pick, set 2 (AID 743343); assay type: functional;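 note: transfected cells were stimulated with diluted bursicon conditioned medium after compound addition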
[14] = target: T4, Polyadenylate-binding protein 1 (Homo sapiens, UniProt P11940); assay: PABP1 MLLE–PAM2 interaction inhibitors, dose response, miRNA deadenylation inhibitor project, biochemical, fluorescence polarization, Cy5-PAM2 peptide, secondary (AID 602260); assay type: functional; details: read-out: IC50_Mean
[15] = target: T4, Polyadenylate-binding protein 1; assay: PABP1 MLLE–PAM2 binding inhibitor potency, dose response, biochemical, fluorescence polarization, FITC-PAM2 peptide (AID 602259); assay type: functional; details: read-out: IC50_Mean
[16] = HepG2 cell cytotoxicity, dose response, cytotoxicity control, plate reader, cherry-pick, antagonist series (AID 743416); assay type: functional, cell-based
[17] = MC4R antagonists, dose response, counter-screen for LGR2 antagonist project, cell-based, plate reader, cherry pick (AID 743444); assay type: functional;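 note: transfected HEK 293 cells stimulated with alpha-MSH peptide; potency of inhibitors of the alpha-MSH evoked signal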
Protein Wnt-3a = Protein Wnt-3a (Mus musculus, UniProt P27467); assay: Wnt3a-driven reporter signaling inhibition, dose response, selectivity assay for Gli-SUFU antagonist project, Wnt-LIGHT cells, luminescence (AID 651570); assay type: functional; details: read-out: IC50_Mean;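 note: Wnt-LIGHT reporter cells stimulated with conditioned medium from Wnt3a-producing cells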
Chain of Protein Wnt-3a (P27467 whole entry): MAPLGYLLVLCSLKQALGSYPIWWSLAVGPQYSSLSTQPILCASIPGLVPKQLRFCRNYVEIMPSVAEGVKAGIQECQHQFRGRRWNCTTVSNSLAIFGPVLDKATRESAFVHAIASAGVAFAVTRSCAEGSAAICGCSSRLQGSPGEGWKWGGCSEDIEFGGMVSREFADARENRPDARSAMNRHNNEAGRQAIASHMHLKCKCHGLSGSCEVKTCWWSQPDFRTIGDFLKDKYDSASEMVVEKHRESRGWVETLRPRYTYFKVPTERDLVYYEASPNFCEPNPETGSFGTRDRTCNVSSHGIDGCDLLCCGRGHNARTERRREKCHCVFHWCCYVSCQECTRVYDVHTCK

T4 sequence (P11940 whole entry): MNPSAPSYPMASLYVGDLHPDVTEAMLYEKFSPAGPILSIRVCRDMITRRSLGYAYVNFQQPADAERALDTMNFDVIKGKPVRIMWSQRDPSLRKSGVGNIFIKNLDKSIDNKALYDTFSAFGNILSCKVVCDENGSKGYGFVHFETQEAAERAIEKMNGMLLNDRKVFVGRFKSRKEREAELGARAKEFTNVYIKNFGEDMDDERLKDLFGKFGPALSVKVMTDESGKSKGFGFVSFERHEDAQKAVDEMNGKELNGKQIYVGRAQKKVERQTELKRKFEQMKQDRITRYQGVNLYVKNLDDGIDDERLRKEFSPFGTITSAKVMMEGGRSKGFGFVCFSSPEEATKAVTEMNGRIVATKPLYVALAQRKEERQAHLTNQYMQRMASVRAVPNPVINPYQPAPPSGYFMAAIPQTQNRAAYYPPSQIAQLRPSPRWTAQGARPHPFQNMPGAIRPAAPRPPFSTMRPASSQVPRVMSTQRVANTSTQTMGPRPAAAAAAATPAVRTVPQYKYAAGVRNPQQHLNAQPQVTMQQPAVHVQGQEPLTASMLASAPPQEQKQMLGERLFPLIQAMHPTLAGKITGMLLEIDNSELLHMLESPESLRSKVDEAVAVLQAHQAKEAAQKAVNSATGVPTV
Chain of Melanocortin receptor 4 (P32245 whole entry): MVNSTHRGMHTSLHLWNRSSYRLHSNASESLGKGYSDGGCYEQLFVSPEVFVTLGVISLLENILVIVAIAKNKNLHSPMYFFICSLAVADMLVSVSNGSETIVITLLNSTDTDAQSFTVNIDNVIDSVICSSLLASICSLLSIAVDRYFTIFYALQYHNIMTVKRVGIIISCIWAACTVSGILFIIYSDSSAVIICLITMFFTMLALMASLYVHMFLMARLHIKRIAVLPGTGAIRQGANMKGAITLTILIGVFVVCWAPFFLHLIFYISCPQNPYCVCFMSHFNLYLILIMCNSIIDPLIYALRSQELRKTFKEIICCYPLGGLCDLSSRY
Chain of 26S proteasome non-ATPase regulatory subunit 14 (O00487 whole entry): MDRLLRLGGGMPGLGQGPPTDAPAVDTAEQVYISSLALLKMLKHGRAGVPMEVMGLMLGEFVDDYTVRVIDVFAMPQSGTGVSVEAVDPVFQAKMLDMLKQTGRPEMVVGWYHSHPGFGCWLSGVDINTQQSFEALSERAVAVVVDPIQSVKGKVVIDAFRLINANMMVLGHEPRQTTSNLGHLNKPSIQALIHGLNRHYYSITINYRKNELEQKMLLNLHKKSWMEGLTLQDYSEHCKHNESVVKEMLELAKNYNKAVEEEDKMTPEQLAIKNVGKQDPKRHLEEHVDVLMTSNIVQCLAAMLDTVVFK
Chain of Photoreceptor-specific nuclear receptor (Q9Y5X4 whole entry, the tested form may be a part): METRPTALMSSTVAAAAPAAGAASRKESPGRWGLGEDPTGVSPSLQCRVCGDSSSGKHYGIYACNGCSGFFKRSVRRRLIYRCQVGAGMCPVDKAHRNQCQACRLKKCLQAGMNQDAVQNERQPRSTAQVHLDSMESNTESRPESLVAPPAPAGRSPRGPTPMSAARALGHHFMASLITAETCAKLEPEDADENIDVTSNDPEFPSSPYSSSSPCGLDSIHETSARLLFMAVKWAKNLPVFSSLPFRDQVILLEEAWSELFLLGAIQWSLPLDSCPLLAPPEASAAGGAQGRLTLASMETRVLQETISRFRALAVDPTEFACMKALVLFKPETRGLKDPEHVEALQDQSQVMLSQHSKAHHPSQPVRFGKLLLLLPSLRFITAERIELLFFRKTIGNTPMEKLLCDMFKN
Chain of ATP-dependent molecular chaperone HSP82 (C4YTQ8 whole entry): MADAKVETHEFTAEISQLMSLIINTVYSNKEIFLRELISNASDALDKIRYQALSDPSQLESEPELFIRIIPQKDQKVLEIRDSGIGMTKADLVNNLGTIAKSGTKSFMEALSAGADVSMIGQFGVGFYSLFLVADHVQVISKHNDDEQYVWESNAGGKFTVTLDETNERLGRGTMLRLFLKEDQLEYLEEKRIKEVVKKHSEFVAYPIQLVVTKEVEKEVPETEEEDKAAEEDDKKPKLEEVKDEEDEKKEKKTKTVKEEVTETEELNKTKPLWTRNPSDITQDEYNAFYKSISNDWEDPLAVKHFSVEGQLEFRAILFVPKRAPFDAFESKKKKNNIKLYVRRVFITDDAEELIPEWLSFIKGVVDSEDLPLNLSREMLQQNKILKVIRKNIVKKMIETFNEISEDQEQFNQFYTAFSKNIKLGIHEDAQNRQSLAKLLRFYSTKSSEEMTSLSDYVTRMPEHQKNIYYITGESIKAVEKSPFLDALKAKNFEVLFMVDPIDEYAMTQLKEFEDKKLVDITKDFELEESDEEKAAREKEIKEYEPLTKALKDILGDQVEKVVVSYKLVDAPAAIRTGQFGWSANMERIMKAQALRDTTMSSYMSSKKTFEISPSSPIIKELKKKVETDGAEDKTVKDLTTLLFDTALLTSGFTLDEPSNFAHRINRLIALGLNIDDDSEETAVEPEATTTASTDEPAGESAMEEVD
Chain of 72 kDa type IV collagenase (P08253 whole entry): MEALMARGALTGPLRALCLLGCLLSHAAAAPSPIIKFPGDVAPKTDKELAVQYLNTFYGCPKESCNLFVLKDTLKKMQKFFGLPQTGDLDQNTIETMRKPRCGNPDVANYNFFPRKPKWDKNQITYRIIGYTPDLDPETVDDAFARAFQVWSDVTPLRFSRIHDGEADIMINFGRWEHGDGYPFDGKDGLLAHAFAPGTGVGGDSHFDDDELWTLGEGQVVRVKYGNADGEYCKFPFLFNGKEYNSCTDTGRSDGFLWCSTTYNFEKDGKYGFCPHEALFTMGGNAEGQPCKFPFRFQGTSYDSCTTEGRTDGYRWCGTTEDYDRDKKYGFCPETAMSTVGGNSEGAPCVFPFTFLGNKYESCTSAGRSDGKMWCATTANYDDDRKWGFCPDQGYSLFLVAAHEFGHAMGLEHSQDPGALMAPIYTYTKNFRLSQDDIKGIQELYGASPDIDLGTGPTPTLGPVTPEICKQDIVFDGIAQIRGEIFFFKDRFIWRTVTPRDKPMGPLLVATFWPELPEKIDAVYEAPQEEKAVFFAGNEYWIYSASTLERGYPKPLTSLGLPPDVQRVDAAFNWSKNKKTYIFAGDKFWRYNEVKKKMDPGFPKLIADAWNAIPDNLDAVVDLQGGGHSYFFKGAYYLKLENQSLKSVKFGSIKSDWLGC

Cc1ccc(NC2=NC(=O)/C(=C/c3cccs3)S2)cc1C
IC50 [1]: 25.9 µM (active) | IC50 (Prothrombin): 37.8 µM (active) | IC50 [2]: > 100 µM (inactive)

O=C(Nc1nc2ccc(SC(F)F)cc2s1)c1ccc(NS(=O)(=O)c2ccc(F)c(F)c2)cc1
EC50 [3]: 92.6 µM (active) | CC50 [4]: 20.1 µM (active) | EC50 [5]: > 150 µM (inactive) | EC50 [6]: 2.68 µM (active) | EC50 (Streptokinase A): > 50 µM (not active) | EC50 [7]: > 180 µM (inactive) | AC50 [8]: 2.45 µM (active) | EC50 (Streptococcus): 2.79 µM (active) | EC50 [9]: 2.18 µM (active) | EC50 (Melanocortin receptor 4): > 89.2 µM (inactive)

COc1cccc(-c2cc(C(=O)N3CCc4ccccc4C3)[nH]n2)c1
EC50 [10]: > 99 µM (inactive) | EC50 [11]: > 99 µM (inactive)

COC(CNC(=O)CSCc1nc(-c2ccc(SC)cc2)oc1C)OC
IC50 [12]: 2.23 µM (active)

O=C(CN1C(=O)c2ccccc2S1(=O)=O)Nc1ncc(Cl)cc1Cl
AC50 (HEK293): 3.85 µM (active) | AC50 [13]: 8.67 µM (active) | IC50 [14]: > 66 µM (inactive) | IC50 [15]: 27.3 µM (inactive) | AC50 [16]: > 52 µM (inactive) | AC50 [17]: 9.06 µM (active)

Brc1ccc(-c2cn3c([n+]2-c2ccccc2)SCC3)cc1
IC50 (Protein Wnt-3a): 17.2 µM (active)

COc1ccc(NC(=O)CN(C)S(=O)(=O)c2ccccc2)c([N+](=O)[O-])c1
EC50 [10]: > 99 µM (inactive) | EC50 [11]: > 99 µM (inactive)
